The conditions of this data set: for solubility: 20 °C.

For 12 molecules, logP and solubility results are on record in the OPERA property sets (Mansouri et al. 2018).

In brackets after ≈: the same amount, converted by molar mass.

As for `O=[N+]([O-])c1cc(-c2ccccc2)ccc1O`, the logP was 3.71 and the solubility was determined as 38.9 µM (≈ 8.37 µg/mL). For `Cc1cc(O)ccc1[N+](=O)[O-]`, the logP came to 2.48 and the solubility was 7760 µM (≈ 1190 µg/mL). The molecule `O=[N+]([O-])c1ccc(O)cc1` registered a solubility of 83400 µM (≈ 11600 µg/mL). `O=Cc1ccc(O)c([N+](=O)[O-])c1` came in with a logP of 1.48 and a solubility of 1120 µM (≈ 187 µg/mL). `Cc1cccc(O)c1[N+](=O)[O-]` yielded a logP of 2.29. For the molecule `Cc1cc(O)c([N+](=O)[O-])cc1Cl`, the logP is 2.93 and the solubility was found to be 40.7 µM (≈ 7.64 µg/mL).

The molecule `O=[N+]([O-])c1cc(Cl)ccc1O` gave a logP of 2.46 and a solubility of 812 µM (≈ 141 µg/mL). The matching figures for `CCC(C)c1ccc(O)c([N+](=O)[O-])c1` (stereo not given): 3.84 and 144 µM (≈ 28.2 µg/mL). In turn, `O=[N+]([O-])c1ccc(F)cc1O` came in with a logP of 1.91. The molecule `Cc1ccc([N+](=O)[O-])c(O)c1` had a logP of 2.31 and a solubility of 1780 µM (≈ 272 µg/mL). Regarding `COc1ccc(O)c([N+](=O)[O-])c1`, the log partition coefficient (logP) worked out at 2.02 and the solubility was found to be 1450 µM (≈ 245 µg/mL). For the molecule `O=[N+]([O-])c1cc(C(F)(F)F)ccc1O`, the logP turned out to be 2.34.
